Assay results as given in patent US11395847B2, “Acylated GLP-1/GLP-2 dual agonists” (Zealand Pharma A/S, priority 2016, dated 2022).
Read-outs that look alike come from different tables or passages of the source. *1 amine or outer side, *2 acyl side, *3 side chain or, on linkers, in order; H or OH if unused. Where a SMILES comes first, the peptide text is derived from it. Side-chain parts run from the residue outwards. [ ]: non-standard residue; d: D form. The star is where a group is joined. C20 diacid = O=C(O)CCCCCCCCCCCCCCCCCCC(=O)*; γGlu = O=C(O)[C@H](CCC(=O)[*:2])N[*:1]; AEEA = NCCOCCOCC(=O)O; Aib = CC(C)(N)C(=O)O

Target: T1, human GLP-2 receptor (Homo sapiens, UniProt O95838, D470N)
T1 construct: expressed in transfected cells
T1 sequence (O95838 1-553 D470N): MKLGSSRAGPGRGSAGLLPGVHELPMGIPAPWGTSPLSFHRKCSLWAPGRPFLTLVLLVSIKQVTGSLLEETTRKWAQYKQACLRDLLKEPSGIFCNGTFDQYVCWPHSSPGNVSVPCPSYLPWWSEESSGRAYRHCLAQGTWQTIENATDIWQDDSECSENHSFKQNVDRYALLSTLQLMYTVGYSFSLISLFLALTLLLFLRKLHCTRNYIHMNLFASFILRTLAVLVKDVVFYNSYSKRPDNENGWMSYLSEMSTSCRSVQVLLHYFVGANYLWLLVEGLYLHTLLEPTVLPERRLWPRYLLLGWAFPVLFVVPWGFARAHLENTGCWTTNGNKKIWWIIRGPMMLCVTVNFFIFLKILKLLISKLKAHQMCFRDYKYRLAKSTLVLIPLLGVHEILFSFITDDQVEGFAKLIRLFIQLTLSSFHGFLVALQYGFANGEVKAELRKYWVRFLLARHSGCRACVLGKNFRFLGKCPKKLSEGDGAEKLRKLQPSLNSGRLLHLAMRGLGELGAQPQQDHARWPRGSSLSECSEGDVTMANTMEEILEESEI
Experiment: GLP-2 receptor potency assay (cAMP ALPHASCREEN, HEK293 cells stably expressing GLP-2 R)
Format: cell-based
Source text: One useful in vitro assay for measuring GLP-1 and GLP-2 receptor activity is quantitation of cAMP, i.e. 3′-5′-cyclic adenosine monophosphate, which is a second messenger essential in many biological processes, and one of the most ubiquitous mechanisms for regulating cellular functions.
For subcloning into a mammalian expression vector, primers for subcloning were obtained from DNA-Technology, Risskov, Denmark. The 5′ and 3′ primers used for the PCR reaction include terminal restriction sites for cloning and the context of the 5′ primer is modified to a Kozak consensus without changing the sequence of the product encoded by the ORF. […] The generated PCR product was purified using GFX PCR and Gel band purification kit, digested with restriction enzymes and cloned into the mammalian expression vector using Rapid DNA Ligation Kit. Ligation reaction was transformed to XL10 Gold Ultracompetent cells and colonies were picked for DNA production using ENDOFREE® Plasmid maxi kit. Subsequent sequence analysis was conducted by MWG Eurofins, Germany.
HEK293 cells were transfected using the LIPOFECTAMINE® PLUS transfection method. The day before transfection, HEK293 cells were seeded in two T75 flasks at a density of 2×10^6 cells/T75 flask in cell culturing medium without antibiotics. On the day of transfection, cells were washed with 1× DPBS and medium was replaced with OPTI-MEM© to a volume of 5 mL/T75 flask before addition of LIPOFECTAMINE®-plasmid complexes were added gently and drop wise to the cells in T75 flasks and replaced with growth medium after 3 hours and again to growth medium supplemented with 500 μg/mL G418 after 24 hours. Following 4 weeks in G418 selection, clones were picked and tested in a functional GLP-2 receptor potency assay as described below.
The cAMP ALPHASCREEN® assay from Perkin Elmer was used to quantitate the cAMP response to activation of the GLP1 and GLP2 receptor, respectively. […] Data from test compounds eliciting an increase in the intracellular level of cAMP were normalized relative to the positive and negative control (vehicle) to calculate the EC50 and maximal response from the concentration response curve.

[1] = cAMP response, HEK293 cells expressing human GLP-2 R, read-out: EC50 GLP-2

EC50 [1] [nM]	Structure (SMILES)	EC50 [nM]
0.18	CC[C@H](C)[C@H](NC(=O)[C@H](Cc1ccccc1)NC(=O)[C@H](CC(=O)O)NC(=O)[C@H](CCCCNC(=O)COCCOCCNC(=O)COCCOCCNC(=O)[C@H](CCCCN)NC(=O)[C@H](CCC(=O)O)NC(=O)[C@H](CCCCN)NC(=O)CC[C@H](NC(=O)CCCCCCCCCCCCCCCCCCC(=O)O)C(=O)O)NC(=O)[C@H](C)NC(=O)[C@H](C)NC(=O)[C@H](CCC(N)=O)NC(=O)[C@H](CCC(=O)O)NC(=O)[C@H](CC(=O)O)NC(=O)[C@H](CC(C)C)NC(=O)[C@@H](NC(=O)[C@@H](NC(=O)[C@H](C)NC(=O)[C@H](CC(C)C)NC(=O)[C@H](CCC(=O)O)NC(=O)[C@H](CO)NC(=O)[C@@H](NC(=O)[C@H](Cc1ccccc1)NC(=O)[C@H](CO)NC(=O)CNC(=O)[C@H](CCC(=O)O)NC(=O)C(C)(C)NC(=O)[C@@H](N)Cc1c[nH]cn1)[C@@H](C)O)[C@@H](C)O)[C@@H](C)CC)C(=O)N[C@@H](C)C(=O)N[C@@H](Cc1c[nH]c2ccccc12)C(=O)N[C@@H](CC(C)C)C(=O)N[C@H](C(=O)N[C@@H](CCC(=O)O)C(=O)N[C@@H](Cc1c[nH]cn1)C(=O)N[C@@H](CCCCN)C(=O)N[C@H](C(=O)N[C@H](C(=O)N[C@@H](CC(=O)O)C(=O)O)[C@@H](C)O)[C@@H](C)CC)[C@@H](C)CC [Compound 66] (H-H[Aib]EGSFTSELATILDEQAAK([AEEA-AEEA-Lys-Glu-Lys-γGlu-C20 diacid])DFIAWLIEHKITD-OH)	–
0.083	CC[C@H](C)[C@H](NC(=O)[C@H](Cc1ccccc1)NC(=O)[C@H](CC(=O)O)NC(=O)[C@H](CCCNC(=N)N)NC(=O)[C@H](C)NC(=O)[C@H](C)NC(=O)[C@H](CCC(N)=O)NC(=O)[C@H](CCCCNC(=O)COCCOCCNC(=O)[C@H](CCCCN)NC(=O)[C@H](CCC(=O)O)NC(=O)[C@H](CCCCN)NC(=O)CC[C@H](NC(=O)CCCCCCCCCCCCCCCCCCC(=O)O)C(=O)O)NC(=O)[C@H](CC(=O)O)NC(=O)[C@H](CC(C)C)NC(=O)[C@@H](NC(=O)[C@@H](NC(=O)[C@H](C)NC(=O)[C@H](CC(C)C)NC(=O)[C@H](CCC(=O)O)NC(=O)[C@H](CO)NC(=O)[C@@H](NC(=O)[C@H](Cc1ccccc1)NC(=O)[C@H](CO)NC(=O)CNC(=O)[C@H](CCC(=O)O)NC(=O)C(C)(C)NC(=O)[C@@H](N)Cc1c[nH]cn1)[C@@H](C)O)[C@@H](C)O)[C@@H](C)CC)C(=O)N[C@@H](C)C(=O)N[C@@H](Cc1c[nH]c2ccccc12)C(=O)N[C@@H](CC(C)C)C(=O)N[C@H](C(=O)N[C@@H](CCC(=O)O)C(=O)N[C@@H](Cc1c[nH]cn1)C(=O)N[C@@H](CCCCN)C(=O)N[C@H](C(=O)N[C@H](C(=O)N[C@@H](CC(=O)O)C(=O)O)[C@@H](C)O)[C@@H](C)CC)[C@@H](C)CC [Compound 57] (HELM PEPTIDE1{H.[Aib].E.G.S.F.T.S.E.L.A.T.I.L.D.K.Q.A.A.R.D.F.I.A.W.L.I.E.H.K.I.T.D}|PEPTIDE2{[O=C(O)CCCCCCCCCCCCCCCCCCC(=O)[*:2]].[gGlu].K.E.K.[O=C(COCCOCCN[*:1])[*:2]]}$PEPTIDE1,PEPTIDE2,16:R3-6:R2$$$V2.0)	–
–	CC[C@H](C)[C@H](NC(=O)[C@H](Cc1ccccc1)NC(=O)[C@H](CC(=O)O)NC(=O)[C@H](CCCNC(=N)N)NC(=O)[C@H](C)NC(=O)[C@H](C)NC(=O)[C@H](CCCCN)NC(=O)[C@H](CCCCNC(=O)CC[C@H](NC(=O)CCCCCCCCCCCCCCCCC(=O)O)C(=O)O)NC(=O)[C@H](CC(=O)O)NC(=O)[C@H](CC(C)C)NC(=O)[C@@H](NC(=O)[C@@H](NC(=O)[C@H](C)NC(=O)[C@H](CC(C)C)NC(=O)[C@H](CCC(=O)O)NC(=O)[C@H](CO)NC(=O)[C@H](CO)NC(=O)[C@H](Cc1ccccc1)NC(=O)[C@@H](NC(=O)CNC(=O)[C@H](CCC(=O)O)NC(=O)C(C)(C)NC(=O)[C@@H](N)Cc1c[nH]cn1)[C@@H](C)O)[C@@H](C)O)[C@@H](C)CC)C(=O)N[C@@H](C)C(=O)N[C@@H](Cc1c[nH]c2ccccc12)C(=O)N[C@@H](CC(C)C)C(=O)N[C@H](C(=O)N[C@@H](CCC(=O)O)C(=O)N[C@@H](Cc1c[nH]cn1)C(=O)N[C@@H](CCCCN)C(=O)N[C@H](C(=O)N[C@H](C(=O)N[C@@H](CC(=O)O)C(=O)O)[C@@H](C)O)[C@@H](C)CC)[C@@H](C)CC [Compound 4] (HELM PEPTIDE1{H.[Aib].E.G.T.F.S.S.E.L.A.T.I.L.D.K.K.A.A.R.D.F.I.A.W.L.I.E.H.K.I.T.D}|PEPTIDE2{[O=C(O)CCCCCCCCCCCCCCCCC(=O)[*:2]].[gGlu]}$PEPTIDE1,PEPTIDE2,16:R3-2:R2$$$V2.0)	0.087
0.35	CC[C@H](C)[C@H](NC(=O)[C@H](Cc1ccccc1)NC(=O)[C@H](CC(=O)O)NC(=O)[C@H](CCCNC(=N)N)NC(=O)[C@H](C)NC(=O)[C@H](C)NC(=O)[C@H](CCC(=O)O)NC(=O)[C@H](CCCCNC(=O)CC[C@H](NC(=O)CCCCCCCCCCCCCCCCC(=O)O)C(=O)O)NC(=O)[C@H](CC(=O)O)NC(=O)[C@H](CC(C)C)NC(=O)[C@@H](NC(=O)[C@@H](NC(=O)[C@H](C)NC(=O)[C@H](CC(C)C)NC(=O)[C@H](CCC(=O)O)NC(=O)[C@H](CO)NC(=O)[C@H](CO)NC(=O)[C@H](Cc1ccccc1)NC(=O)[C@@H](NC(=O)CNC(=O)[C@H](CCC(=O)O)NC(=O)C(C)(C)NC(=O)[C@@H](N)Cc1c[nH]cn1)[C@@H](C)O)[C@@H](C)O)[C@@H](C)CC)C(=O)N[C@@H](C)C(=O)N[C@@H](Cc1c[nH]c2ccccc12)C(=O)N[C@@H](CC(C)C)C(=O)N[C@H](C(=O)N[C@@H](CCC(=O)O)C(=O)N[C@@H](Cc1c[nH]cn1)C(=O)N[C@@H](CCCCN)C(=O)N[C@H](C(=O)N[C@H](C(=O)N[C@@H](CC(=O)O)C(=O)O)[C@@H](C)O)[C@@H](C)CC)[C@@H](C)CC [Compound 1] (HELM PEPTIDE1{H.[Aib].E.G.T.F.S.S.E.L.A.T.I.L.D.K.E.A.A.R.D.F.I.A.W.L.I.E.H.K.I.T.D}|PEPTIDE2{[O=C(O)CCCCCCCCCCCCCCCCC(=O)[*:2]].[gGlu]}$PEPTIDE1,PEPTIDE2,16:R3-2:R2$$$V2.0)	–

Structure (SMILES)	EC50 [1] [nM]	EC50 [nM]
CC[C@H](C)[C@H](NC(=O)[C@H](Cc1ccccc1)NC(=O)[C@H](CC(=O)O)NC(=O)[C@H](CCCNC(=N)N)NC(=O)[C@H](C)NC(=O)[C@H](C)NC(=O)[C@H](CCCCN)NC(=O)[C@H](CCCCNC(=O)COCCOCCNC(=O)[C@H](CCCCN)NC(=O)[C@H](CCC(=O)O)NC(=O)[C@H](CCCCN)NC(=O)CC[C@H](NC(=O)CCCCCCCCCCCCCCCCCCC(=O)O)C(=O)O)NC(=O)[C@H](CC(=O)O)NC(=O)[C@H](CC(C)C)NC(=O)[C@@H](NC(=O)[C@@H](NC(=O)[C@H](C)NC(=O)[C@H](CC(C)C)NC(=O)[C@H](CCC(=O)O)NC(=O)[C@H](CO)NC(=O)[C@@H](NC(=O)[C@H](Cc1ccccc1)NC(=O)[C@H](CO)NC(=O)CNC(=O)[C@H](CCC(=O)O)NC(=O)C(C)(C)NC(=O)[C@@H](N)Cc1c[nH]cn1)[C@@H](C)O)[C@@H](C)O)[C@@H](C)CC)C(=O)N[C@@H](C)C(=O)N[C@@H](Cc1c[nH]c2ccccc12)C(=O)N[C@@H](CC(C)C)C(=O)N[C@H](C(=O)N[C@@H](CCC(=O)O)C(=O)N[C@@H](Cc1c[nH]cn1)C(=O)N[C@@H](CCCCN)C(=O)N[C@H](C(=O)N[C@H](C(=O)N[C@@H](CC(=O)O)C(=O)O)[C@@H](C)O)[C@@H](C)CC)[C@@H](C)CC [Compound 59] (HELM PEPTIDE1{H.[Aib].E.G.S.F.T.S.E.L.A.T.I.L.D.K.K.A.A.R.D.F.I.A.W.L.I.E.H.K.I.T.D}|PEPTIDE2{[O=C(O)CCCCCCCCCCCCCCCCCCC(=O)[*:2]].[gGlu].K.E.K.[O=C(COCCOCCN[*:1])[*:2]]}$PEPTIDE1,PEPTIDE2,16:R3-6:R2$$$V2.0)	0.11	–
